# According to ChEMBL document CHEMBL1201862, “PubChem BioAssay data set” (2004):
#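 The compound was tested at five concentrations on cells cultured in 96-well plates, with a 48-hour exposure period. GI50: concentration for 50% inhibition of growth.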 The source made the active and inactive calls. Cut-off read from the data, not from the text of the source: active = GI50 up to about 1.1 µM and inactive = higher.
# Tests used:
# Assay in all cases: inhibition of tumour cell growth, NCI panel, 48 h
# [1] = test system: 786-0
# [2] = test system: A498
# [3] = test system: A549
# [4] = test system: ACHN
# [5] = test system: BT-549
# [6] = test system: CAKI-1
# [7] = test system: CCRF-CEM
# [8] = test system: COLO 205
# [9] = test system: DU-145
# [10] = test system: EKVX
# [11] = test system: HCC 2998
# [12] = test system: HCT-116
# [13] = test system: HCT-15
# [14] = test system: HL-60
# [15] = test system: HOP-62
# [16] = test system: HOP-92
# [17] = test system: HT-29
# [18] = test system: Hs-578T
# [19] = test system: IGROV-1
# [20] = test system: K562
# [21] = test system: LOX IMVI
# [22] = test system: M14
# [23] = test system: MCF7
# [24] = test system: MDA-MB-231
# [25] = test system: MDA-MB-435
# [26] = test system: MDA-N
# [27] = test system: MOLT-4
# [28] = test system: Malme-3M
# [29] = test system: NCI-H226
# [30] = test system: NCI-H23
# [31] = test system: NCI-H460
# [32] = test system: NCI-H522
# [33] = test system: NCI/ADR-RES
# [34] = test system: OVCAR-3
# [35] = test system: OVCAR-4
# [36] = test system: OVCAR-5
# [37] = test system: OVCAR-8
# [38] = test system: PC-3
# [39] = test system: RPMI-8226
# [40] = test system: RXF 393
# [41] = test system: SF-268
# [42] = test system: SF-295
# [43] = test system: SF-539
# [44] = test system: SK-MEL-28
# [45] = test system: SK-MEL-2
# [46] = test system: SK-MEL-5
# [47] = test system: SK-OV-3
# [48] = test system: SN12C
# [49] = test system: SNB-19
# [50] = test system: SNB-75
# [51] = test system: SR
# [52] = test system: SW-620
# [53] = test system: T47D
# [54] = test system: TK-10
# [55] = test system: U-251
# [56] = test system: UACC-257
# [57] = test system: UACC-62
# [58] = test system: UO-31
# [59] = test system: KM12
smiles,measurement,setting,value
CC(=O)OC1CCn2c1nc1c2C(=O)C=C(N2CC2)C1=O (stereo unspecified),GI50,[1],0.108 µM (active)
same,GI50,[2],0.218 µM (active)
same,GI50,[3],1.41 µM (inactive)
same,GI50,[4],0.0354 µM (active)
same,GI50,[5],1.27 µM (inactive)
same,GI50,[6],0.032 µM (active)
same,GI50,[7],< 10 nM (active)
same,GI50,[8],0.0697 µM (active)
same,GI50,[9],3.31 µM (inactive)
same,GI50,[10],1.02 µM (active)
same,GI50,[11],1.45 µM (inactive)
same,GI50,[12],0.153 µM (active)
same,GI50,[13],0.403 µM
same,GI50,[14],170 nM (active)
same,GI50,[15],2.11 µM (inactive)
same,GI50,[16],0.378 µM (active)
same,GI50,[17],0.693 µM (active)
same,GI50,[18],0.524 µM (active)
same,GI50,[19],0.449 µM (active)
same,GI50,[20],0.394 µM (active)
same,GI50,[21],0.0719 µM (active)
same,GI50,[22],0.0519 µM (active)
same,GI50,[23],0.173 µM (active)
same,GI50,[24],1.91 µM (inactive)
same,GI50,[25],0.476 µM (active)
same,GI50,[26],0.332 µM (active)
same,GI50,[27],33 nM (active)
same,GI50,[28],0.0311 µM (active)
same,GI50,[29],1.86 µM (inactive)
same,GI50,[30],0.269 µM (active)
same,GI50,[31],1.15 µM (inactive)
same,GI50,[32],0.0112 µM (active)
same,GI50,[33],0.402 µM (active)
same,GI50,[34],0.215 µM (active)
same,GI50,[35],0.0746 µM (active)
same,GI50,[36],0.774 µM (active)
same,GI50,[37],0.402 µM (active)
same,GI50,[38],0.931 µM (active)
same,GI50,[39],0.251 µM (active)
same,GI50,[40],0.0748 µM (active)
same,GI50,[41],0.185 µM (active)
same,GI50,[42],1.81 µM (inactive)
same,GI50,[43],0.22 µM (active)
same,GI50,[44],0.0314 µM (active)
same,GI50,[45],0.2 µM (active)
same,GI50,[46],0.142 µM (active)
same,GI50,[47],2.15 µM (inactive)
same,GI50,[48],0.65 µM (active)
same,GI50,[49],2.88 µM (inactive)
same,GI50,[50],0.174 µM (active)
same,GI50,[51],0.0953 µM (active)
same,GI50,[52],< 0.0211 µM (active)
same,GI50,[53],745 nM (active)
same,GI50,[54],0.292 µM (active)
same,GI50,[55],0.218 µM (active)
same,GI50,[56],0.292 µM (active)
same,GI50,[57],0.0697 µM (active)
same,GI50,[58],0.103 µM (active)
c1ccc(C2=Nc3cccc4cccc(c34)N2)cc1,GI50,[1],42.8 µM (inactive)
same,GI50,[2],> 100 µM (inactive)
same,GI50,[3],56.9 µM (inactive)
same,GI50,[4],26.2 µM (inactive)
same,GI50,[5],> 44.2 µM (inactive)
same,GI50,[6],37.2 µM (inactive)
same,GI50,[7],3820 nM (inactive)
same,GI50,[8],18.6 µM (inactive)
same,GI50,[9],> 90.2 µM (inactive)
same,GI50,[10],> 51.1 µM (inactive)
same,GI50,[11],43.9 µM (inactive)
same,GI50,[12],23.3 µM (inactive)
same,GI50,[13],28.6 µM
same,GI50,[14],2880 nM (inactive)
same,GI50,[15],> 100 µM (inactive)
same,GI50,[16],24.4 µM (inactive)
same,GI50,[17],43.5 µM (inactive)
same,GI50,[18],58.1 µM (inactive)
same,GI50,[19],> 54.6 µM (inactive)
same,GI50,[20],32 µM (inactive)
same,GI50,[59],28.3 µM (inactive)
same,GI50,[21],23.5 µM (inactive)
same,GI50,[22],44.7 µM (inactive)
same,GI50,[23],40.8 µM (inactive)
same,GI50,[24],19.7 µM (inactive)
same,GI50,[25],48.8 µM (inactive)
same,GI50,[26],45.3 µM (inactive)
same,GI50,[28],43.5 µM (inactive)
same,GI50,[29],> 78.3 µM (inactive)
same,GI50,[30],> 60.5 µM (inactive)
same,GI50,[31],57 µM (inactive)
same,GI50,[32],12.2 µM (inactive)
same,GI50,[33],30.8 µM (inactive)
same,GI50,[34],23.7 µM (inactive)
same,GI50,[35],18.7 µM (inactive)
same,GI50,[36],69.5 µM (inactive)
same,GI50,[37],35.5 µM (inactive)
same,GI50,[38],22.8 µM (inactive)
same,GI50,[39],22.6 µM (inactive)
same,GI50,[40],22 µM (inactive)
same,GI50,[41],44.8 µM (inactive)
same,GI50,[42],58.2 µM (inactive)
same,GI50,[43],56.2 µM (inactive)
same,GI50,[44],> 79.1 µM (inactive)
same,GI50,[45],> 46.3 µM (inactive)
same,GI50,[46],56.2 µM (inactive)
same,GI50,[47],> 100 µM (inactive)
same,GI50,[48],> 78.7 µM (inactive)
same,GI50,[49],> 100 µM (inactive)
same,GI50,[50],> 90.6 µM (inactive)
same,GI50,[51],9.48 µM (inactive)
same,GI50,[52],20.4 µM (inactive)
same,GI50,[53],4630 nM (inactive)
same,GI50,[54],48.9 µM (inactive)
same,GI50,[55],> 100 µM (inactive)
same,GI50,[56],> 69.5 µM (inactive)
same,GI50,[57],37.9 µM (inactive)
same,GI50,[58],21.3 µM (inactive)
